ChEMBL document CHEMBL5465560, “Selectivity Literature for EUbOPEN Chemogenomic Library” (2024)

How the values were obtained:
[1] = target: Protein-tyrosine kinase 2-beta (Homo sapiens) (UniProt Q14289); conditions: at 10 µM
[2] = system: Epidermal growth factor receptor (Homo sapiens), P00533 [UNDEFINED MUTATION]; experiment: Selectivity interaction (KinomeScan (DiscoverX)) EUB0000655a EGFR; conditions: at 10 µM
[3] = system: Phosphatidylinositol 4,5-bisphosphate 3-kinase catalytic subunit alpha isoform (Homo sapiens), P42336 [E542K]; experiment: (§1) Selectivity interaction (KinomeScan (DiscoverX)) EUB0000655a PIK3CA; conditions: at 10 µM
Sequence of Phosphatidylinositol 4,5-bisphosphate 3-kinase catalytic subunit alpha isoform (Homo sapiens), P42336 [E542K] (P42336 whole entry E542K, canonical isoform): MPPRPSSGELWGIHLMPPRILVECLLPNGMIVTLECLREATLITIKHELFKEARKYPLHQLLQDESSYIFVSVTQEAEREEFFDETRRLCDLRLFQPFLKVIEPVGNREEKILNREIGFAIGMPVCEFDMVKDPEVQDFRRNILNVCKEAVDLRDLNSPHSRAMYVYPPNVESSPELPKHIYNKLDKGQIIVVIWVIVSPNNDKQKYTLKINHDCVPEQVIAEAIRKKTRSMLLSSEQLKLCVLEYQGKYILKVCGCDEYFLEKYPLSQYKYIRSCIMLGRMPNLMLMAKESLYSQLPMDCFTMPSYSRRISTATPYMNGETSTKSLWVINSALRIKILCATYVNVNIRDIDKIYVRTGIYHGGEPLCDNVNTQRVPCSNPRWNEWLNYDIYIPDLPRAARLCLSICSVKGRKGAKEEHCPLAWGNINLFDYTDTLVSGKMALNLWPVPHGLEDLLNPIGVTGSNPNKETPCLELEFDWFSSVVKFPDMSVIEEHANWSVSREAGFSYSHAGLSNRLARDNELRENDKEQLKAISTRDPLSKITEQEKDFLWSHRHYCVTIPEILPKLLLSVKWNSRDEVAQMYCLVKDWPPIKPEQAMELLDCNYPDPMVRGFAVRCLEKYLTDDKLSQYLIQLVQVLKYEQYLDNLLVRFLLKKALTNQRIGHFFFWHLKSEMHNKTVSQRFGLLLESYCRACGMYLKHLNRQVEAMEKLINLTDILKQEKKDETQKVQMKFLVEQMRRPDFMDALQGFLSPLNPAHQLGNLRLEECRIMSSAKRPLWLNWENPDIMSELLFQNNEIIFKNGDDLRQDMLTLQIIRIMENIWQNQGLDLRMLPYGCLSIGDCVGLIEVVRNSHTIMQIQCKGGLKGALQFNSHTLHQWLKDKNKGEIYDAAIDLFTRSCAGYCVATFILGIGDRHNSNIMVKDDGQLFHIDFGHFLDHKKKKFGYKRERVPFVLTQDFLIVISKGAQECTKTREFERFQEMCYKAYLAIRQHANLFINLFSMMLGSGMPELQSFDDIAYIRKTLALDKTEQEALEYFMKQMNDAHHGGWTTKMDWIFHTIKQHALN

[4] = system: Phosphatidylinositol 4,5-bisphosphate 3-kinase catalytic subunit alpha isoform (Homo sapiens), P42336 [H1047Y]; experiment: as §1; conditions: at 10 µM
[5] = system: Phosphatidylinositol 4,5-bisphosphate 3-kinase catalytic subunit alpha isoform (Homo sapiens), P42336 [I800L]; experiment: as §1; conditions: at 10 µM
[6] = system: Phosphatidylinositol 4,5-bisphosphate 3-kinase catalytic subunit alpha isoform (Homo sapiens), P42336 [H1047L]; experiment: as §1; conditions: at 10 µM
[7] = system: Phosphatidylinositol 4,5-bisphosphate 3-kinase catalytic subunit alpha isoform (Homo sapiens), P42336 [E545K]; experiment: as §1; conditions: at 10 µM
Sequence of Phosphatidylinositol 4,5-bisphosphate 3-kinase catalytic subunit alpha isoform (Homo sapiens), P42336 [E545K] (P42336 whole entry E545K, canonical isoform): as the sequence (P42336 whole entry E542K, canonical isoform) above, with K542E, E545K counted along it

[8] = target: Phosphatidylinositol 4,5-bisphosphate 3-kinase catalytic subunit alpha isoform (Homo sapiens) (UniProt P42336); experiment: as §1; conditions: at 10 µM
[9] = system: Phosphatidylinositol 4,5-bisphosphate 3-kinase catalytic subunit alpha isoform (Homo sapiens), P42336 [E545A]; experiment: as §1; conditions: at 10 µM
[10] = system: Phosphatidylinositol 4,5-bisphosphate 3-kinase catalytic subunit alpha isoform (Homo sapiens), P42336 [Q546K]; experiment: as §1; conditions: at 10 µM
[11] = system: Phosphatidylinositol 4,5-bisphosphate 3-kinase catalytic subunit alpha isoform (Homo sapiens), P42336 [M1043I]; experiment: as §1; conditions: at 10 µM
[12] = system: Phosphatidylinositol 4,5-bisphosphate 3-kinase catalytic subunit alpha isoform (Homo sapiens), P42336 [C420R]; experiment: as §1; conditions: at 10 µM
[13] = target: Protein-tyrosine kinase 2-beta (Homo sapiens) (UniProt Q14289); experiment: Selectivity interaction (KinomeScan (DiscoverX)) EUB0001079a PTK2B; conditions: at 1 µM
[14] = target: Mitogen-activated protein kinase 6 (Homo sapiens) (UniProt Q16659); experiment: Selectivity interaction (KinomeScan (DiscoverX)) EUB0000607a MAPK6; conditions: at 10 µM
[15] = target: Protein kinase C eta type (Homo sapiens) (UniProt P24723); experiment: Selectivity interaction (KinomeScan (DiscoverX)) EUB0000695a PRKCH; conditions: at 100 nM
[16] = target: T1, Tyrosine-protein kinase Tec (Homo sapiens) (UniProt P42680); conditions: at 10 µM
T1 sequence (whole entry): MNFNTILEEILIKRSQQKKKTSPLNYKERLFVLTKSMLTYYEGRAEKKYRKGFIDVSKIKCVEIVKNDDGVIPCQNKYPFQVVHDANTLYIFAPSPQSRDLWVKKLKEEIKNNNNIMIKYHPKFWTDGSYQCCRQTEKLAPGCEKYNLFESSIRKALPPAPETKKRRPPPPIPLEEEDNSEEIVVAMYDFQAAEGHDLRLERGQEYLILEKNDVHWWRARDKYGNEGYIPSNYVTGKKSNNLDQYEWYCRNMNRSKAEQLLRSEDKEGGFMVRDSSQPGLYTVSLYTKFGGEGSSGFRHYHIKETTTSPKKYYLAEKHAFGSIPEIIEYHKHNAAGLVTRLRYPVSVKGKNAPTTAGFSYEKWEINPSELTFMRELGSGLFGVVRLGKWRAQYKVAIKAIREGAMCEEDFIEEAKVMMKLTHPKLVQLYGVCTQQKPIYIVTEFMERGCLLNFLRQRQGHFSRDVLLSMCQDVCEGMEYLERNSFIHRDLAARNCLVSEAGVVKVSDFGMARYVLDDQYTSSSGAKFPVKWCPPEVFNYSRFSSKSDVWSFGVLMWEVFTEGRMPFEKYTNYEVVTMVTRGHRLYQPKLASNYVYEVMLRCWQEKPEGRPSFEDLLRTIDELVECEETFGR

[17] = target: T2, Serine/threonine-protein kinase 36 (Homo sapiens) (UniProt Q9NRP7); experiment: Selectivity interaction (KinomeScan (DiscoverX)) EUB0000595a STK36; conditions: at 10 µM
T2 sequence (whole entry): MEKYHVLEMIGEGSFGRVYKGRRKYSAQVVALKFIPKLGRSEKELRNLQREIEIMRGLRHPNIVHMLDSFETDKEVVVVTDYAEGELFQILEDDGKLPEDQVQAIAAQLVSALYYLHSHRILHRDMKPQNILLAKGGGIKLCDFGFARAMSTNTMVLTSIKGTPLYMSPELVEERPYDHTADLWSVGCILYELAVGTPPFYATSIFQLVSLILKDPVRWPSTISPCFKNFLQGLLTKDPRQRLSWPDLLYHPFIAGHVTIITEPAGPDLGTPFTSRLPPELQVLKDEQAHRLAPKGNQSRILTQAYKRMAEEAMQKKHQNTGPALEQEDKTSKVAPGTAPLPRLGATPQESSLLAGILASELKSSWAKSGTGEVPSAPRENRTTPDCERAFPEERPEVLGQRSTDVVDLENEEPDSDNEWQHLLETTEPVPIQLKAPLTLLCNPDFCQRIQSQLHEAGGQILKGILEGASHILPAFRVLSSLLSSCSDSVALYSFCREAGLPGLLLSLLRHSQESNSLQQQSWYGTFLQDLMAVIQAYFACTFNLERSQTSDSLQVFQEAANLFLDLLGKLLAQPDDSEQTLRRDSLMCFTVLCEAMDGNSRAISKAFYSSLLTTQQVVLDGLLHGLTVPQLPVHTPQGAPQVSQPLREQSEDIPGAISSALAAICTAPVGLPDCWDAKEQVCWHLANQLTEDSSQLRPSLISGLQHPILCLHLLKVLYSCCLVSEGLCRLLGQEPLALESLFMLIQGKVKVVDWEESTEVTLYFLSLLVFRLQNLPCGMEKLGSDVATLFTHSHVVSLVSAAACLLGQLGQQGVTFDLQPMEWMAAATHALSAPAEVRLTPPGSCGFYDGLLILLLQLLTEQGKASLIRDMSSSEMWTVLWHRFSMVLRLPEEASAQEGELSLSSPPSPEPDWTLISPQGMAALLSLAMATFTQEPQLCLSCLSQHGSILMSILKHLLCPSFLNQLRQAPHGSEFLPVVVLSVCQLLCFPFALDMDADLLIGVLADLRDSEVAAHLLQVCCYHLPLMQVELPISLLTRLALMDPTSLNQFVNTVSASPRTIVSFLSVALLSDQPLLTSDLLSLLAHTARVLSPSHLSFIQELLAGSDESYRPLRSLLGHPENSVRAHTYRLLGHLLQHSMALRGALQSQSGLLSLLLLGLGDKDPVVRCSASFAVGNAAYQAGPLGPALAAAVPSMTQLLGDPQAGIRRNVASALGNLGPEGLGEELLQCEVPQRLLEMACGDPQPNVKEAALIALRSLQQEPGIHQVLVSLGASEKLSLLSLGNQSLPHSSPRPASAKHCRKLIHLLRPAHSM

[18] = target: Tyrosine-protein kinase HCK (Homo sapiens) (UniProt P08631); experiment: Selectivity interaction (KinomeScan (DiscoverX)) EUB0000045b HCK
Sequence of Tyrosine-protein kinase HCK (Homo sapiens) (P08631 2-526 limits assumed): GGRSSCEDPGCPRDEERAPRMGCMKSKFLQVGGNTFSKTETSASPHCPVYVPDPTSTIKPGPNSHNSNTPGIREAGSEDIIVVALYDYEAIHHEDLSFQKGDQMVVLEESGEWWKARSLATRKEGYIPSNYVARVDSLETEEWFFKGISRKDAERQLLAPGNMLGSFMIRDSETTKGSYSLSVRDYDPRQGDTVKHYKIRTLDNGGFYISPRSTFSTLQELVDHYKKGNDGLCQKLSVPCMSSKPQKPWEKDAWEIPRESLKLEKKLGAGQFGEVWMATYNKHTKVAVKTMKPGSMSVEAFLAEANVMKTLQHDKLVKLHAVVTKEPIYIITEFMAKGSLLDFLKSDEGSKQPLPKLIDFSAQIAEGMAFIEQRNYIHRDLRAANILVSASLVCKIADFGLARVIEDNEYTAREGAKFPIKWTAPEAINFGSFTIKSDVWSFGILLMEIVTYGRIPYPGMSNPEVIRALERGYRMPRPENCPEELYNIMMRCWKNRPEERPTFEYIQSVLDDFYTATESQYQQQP

Sequence of Protein-tyrosine kinase 2-beta (Homo sapiens) (Q14289 whole entry, looked up): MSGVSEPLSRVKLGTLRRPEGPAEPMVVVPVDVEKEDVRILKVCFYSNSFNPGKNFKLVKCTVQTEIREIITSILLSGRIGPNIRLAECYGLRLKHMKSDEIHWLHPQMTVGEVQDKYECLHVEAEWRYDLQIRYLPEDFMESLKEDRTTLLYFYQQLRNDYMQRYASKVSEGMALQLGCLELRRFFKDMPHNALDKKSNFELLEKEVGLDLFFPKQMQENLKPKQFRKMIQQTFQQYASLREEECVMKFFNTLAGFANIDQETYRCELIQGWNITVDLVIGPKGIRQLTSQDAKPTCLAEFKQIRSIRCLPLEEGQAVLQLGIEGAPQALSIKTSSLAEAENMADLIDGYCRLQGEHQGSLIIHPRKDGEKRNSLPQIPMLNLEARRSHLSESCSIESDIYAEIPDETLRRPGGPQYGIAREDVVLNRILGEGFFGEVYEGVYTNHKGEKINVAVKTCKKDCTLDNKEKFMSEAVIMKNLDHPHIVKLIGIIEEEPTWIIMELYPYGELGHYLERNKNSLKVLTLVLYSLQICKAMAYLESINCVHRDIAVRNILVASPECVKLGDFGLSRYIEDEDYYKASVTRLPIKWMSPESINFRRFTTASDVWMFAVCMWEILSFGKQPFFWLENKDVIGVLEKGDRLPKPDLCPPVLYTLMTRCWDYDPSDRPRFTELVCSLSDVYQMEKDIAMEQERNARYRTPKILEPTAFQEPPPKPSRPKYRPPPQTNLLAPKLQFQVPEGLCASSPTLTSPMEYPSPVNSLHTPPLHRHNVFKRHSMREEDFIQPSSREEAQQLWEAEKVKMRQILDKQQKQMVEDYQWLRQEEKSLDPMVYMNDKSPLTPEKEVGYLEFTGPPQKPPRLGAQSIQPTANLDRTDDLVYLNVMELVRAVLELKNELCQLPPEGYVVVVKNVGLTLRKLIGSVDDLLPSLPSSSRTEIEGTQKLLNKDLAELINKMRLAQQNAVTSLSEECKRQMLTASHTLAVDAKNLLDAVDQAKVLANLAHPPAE
Sequence of Epidermal growth factor receptor (Homo sapiens), P00533 [UNDEFINED MUTATION] (P00533 whole entry, looked up, stated change not applied, canonical isoform): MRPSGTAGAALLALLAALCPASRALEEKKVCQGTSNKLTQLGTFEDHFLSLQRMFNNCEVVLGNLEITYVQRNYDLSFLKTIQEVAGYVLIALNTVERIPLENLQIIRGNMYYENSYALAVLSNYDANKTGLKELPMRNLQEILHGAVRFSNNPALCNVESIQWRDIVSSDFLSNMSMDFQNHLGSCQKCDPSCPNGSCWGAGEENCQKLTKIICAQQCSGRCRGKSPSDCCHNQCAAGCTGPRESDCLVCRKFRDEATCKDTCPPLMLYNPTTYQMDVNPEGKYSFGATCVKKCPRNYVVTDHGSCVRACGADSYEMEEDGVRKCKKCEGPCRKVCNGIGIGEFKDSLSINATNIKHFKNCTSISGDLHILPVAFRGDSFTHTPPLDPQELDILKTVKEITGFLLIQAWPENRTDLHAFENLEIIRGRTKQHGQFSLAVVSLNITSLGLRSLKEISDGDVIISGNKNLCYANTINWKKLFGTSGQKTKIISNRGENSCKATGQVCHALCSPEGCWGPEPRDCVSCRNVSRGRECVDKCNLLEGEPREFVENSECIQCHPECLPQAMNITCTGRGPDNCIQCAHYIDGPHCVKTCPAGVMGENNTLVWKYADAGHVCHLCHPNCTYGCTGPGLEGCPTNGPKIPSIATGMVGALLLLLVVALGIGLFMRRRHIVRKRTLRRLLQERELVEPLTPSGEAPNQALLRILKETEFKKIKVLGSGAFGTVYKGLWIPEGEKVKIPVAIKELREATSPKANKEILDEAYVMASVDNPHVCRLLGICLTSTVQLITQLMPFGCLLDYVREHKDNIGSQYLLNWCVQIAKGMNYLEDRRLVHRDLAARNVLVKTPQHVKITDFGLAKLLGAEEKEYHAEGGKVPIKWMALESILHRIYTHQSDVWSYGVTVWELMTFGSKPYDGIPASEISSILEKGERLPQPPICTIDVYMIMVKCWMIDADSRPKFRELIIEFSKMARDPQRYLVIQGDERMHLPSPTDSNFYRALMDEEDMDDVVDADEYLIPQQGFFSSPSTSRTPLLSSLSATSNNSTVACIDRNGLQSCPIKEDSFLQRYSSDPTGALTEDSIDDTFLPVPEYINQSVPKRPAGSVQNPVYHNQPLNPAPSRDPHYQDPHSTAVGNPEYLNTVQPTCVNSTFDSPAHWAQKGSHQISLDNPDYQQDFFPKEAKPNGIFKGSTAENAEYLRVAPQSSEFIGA

`CCN(CC)CCCCNc1ncc2cc(-c3cc(OC)cc(OC)c3)c(NC(=O)NC(C)(C)C)nc2n1` was tested. Which % of control [1] did it give?
Its % of control is 100%.

Which results are given for `CN(C)CCOc1ccc(-c2nc(-c3ccncc3)c(-c3ccc4c(c3)CC/C4=N\O)[nH]2)cc1`?
% of control [2]: 92%; % of control [3]: 93%; % of control [4]: 88%; % of control [5]: 81%; % of control [6]: 98%; % of control [7]: 100%; % of control [8]: 85%; % of control [9]: 83%; % of control [10]: 81%; % of control [11]: 84%; % of control [12]: 100%

How did the % of control [13] turn out when `Nc1cnc(N2CCc3cc(S(=O)(=O)Nc4c(F)cc(Cl)cc4F)cc(N4CCCC4=O)c32)nc1` [TP-020n] was run?
The % of control was 100%.

How did the % of control [14] turn out when `CNC(=O)Nc1ccc(-c2nc(N3CC4CCC(C3)O4)c3cnn(C4CCC5(CC4)OCCO5)c3n2)cc1` was run?
Its % of control is 85%.

`Cc1cc(F)c(C(=O)Nc2cccc(-c3nncn3C(C)C)n2)cc1-n1cnc(C2CC2)c1` was tested. Which % of control [15] did it give?
Its % of control is 91%.

How did the % of control [16] turn out when `COCC(=O)NC/C=C/c1ccc2ncnc(Nc3ccc(Oc4ccc(C)nc4)c(C)c3)c2c1` [CP-724714] was run?
Its % of control is 73%.

What about the % of control [17] of the same compound?
The % of control was 100%.

Which % of control ([18]; at 1 µM) does the source give for `C=CC(=O)Nc1cc(-n2c(=O)ccc3cnc4ccc(-c5ccc(NS(C)(=O)=O)cc5)cc4c32)ccc1C` here?
The % of control was 97%.

And the % of control ([18]; at 10 µM)?
Its % of control is 100%.
